How the values were obtained:
Human HDAC7 = target: T1, Human HDAC7 (Homo sapiens, UniProt Q8WUI4); experiment: HDAC7 biochemical assay, class IIa-specific substrate; details: read-out: HDAC Isoform IC50 (nM) 7
T1 construct: (a.a. 518-end) with N-terminal GST tag; GST (N); host or cells: baculovirus expression system
T1 sequence (Q8WUI4 518-952 limits assumed): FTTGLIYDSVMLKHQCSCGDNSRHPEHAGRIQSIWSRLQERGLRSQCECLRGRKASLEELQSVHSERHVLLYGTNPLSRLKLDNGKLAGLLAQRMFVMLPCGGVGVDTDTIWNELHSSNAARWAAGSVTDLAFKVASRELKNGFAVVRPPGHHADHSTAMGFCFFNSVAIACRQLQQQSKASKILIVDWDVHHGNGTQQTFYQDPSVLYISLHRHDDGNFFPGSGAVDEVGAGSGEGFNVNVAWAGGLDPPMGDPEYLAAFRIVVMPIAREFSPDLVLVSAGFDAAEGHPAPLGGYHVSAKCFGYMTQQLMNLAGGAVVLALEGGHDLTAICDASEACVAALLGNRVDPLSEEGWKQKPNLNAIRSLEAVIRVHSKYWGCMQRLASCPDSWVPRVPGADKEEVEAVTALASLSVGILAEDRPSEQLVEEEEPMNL
Summary of the method: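 GST-tagged HDAC7 (a.a. 518-end, baculovirus-expressed) at 0.001 ng/ul with 50 μM Boc-Lys(trifluoroacetyl)-AMC substrate, 30 min at room temperature in pH 8.0 Tris buffer with BSA, 1% DMSO final. Developer then releases AMC; fluorescence read at 360/460 nm.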

Human HDAC11 = target: T2, Human HDAC11 (Homo sapiens, UniProt Q96DB2); experiment: HDAC11 biochemical assay, class IIa-specific substrate; details: read-out: HDAC Isoform IC50 (nM) 11
T2 construct: Human HDAC11 (full length); His (N); host or cells: baculovirus expression system
T2 sequence (Q96DB2 1-347): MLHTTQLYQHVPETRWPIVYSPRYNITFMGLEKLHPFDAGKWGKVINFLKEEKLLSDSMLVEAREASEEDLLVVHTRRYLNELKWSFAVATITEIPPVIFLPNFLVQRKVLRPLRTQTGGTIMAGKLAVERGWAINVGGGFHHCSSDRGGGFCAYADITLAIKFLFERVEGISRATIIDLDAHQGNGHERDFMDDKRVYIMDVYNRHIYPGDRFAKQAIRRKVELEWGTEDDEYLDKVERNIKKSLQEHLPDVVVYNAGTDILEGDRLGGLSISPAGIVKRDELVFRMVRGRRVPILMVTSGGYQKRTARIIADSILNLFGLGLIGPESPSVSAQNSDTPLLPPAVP
Summary of the method: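 Full-length N-His human HDAC11 from baculovirus, 5 ng/μl, incubated with 50 μM Boc-Lys(trifluoroacetyl)-AMC for 30 min at 30 °C. Buffer: 50 mM Tris-HCl pH 8.0, 137 mM NaCl, 2.7 mM KCl, 1 mM MgCl2, 1 mg/mL BSA, 1% DMSO. Developer releases AMC; fluorescence read at 360/460 nm.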

[1] = system: acetylated α-tubulin in A549 lung adenocarcinoma cells; experiment: Acetylated α-tubulin in-cell western (ICW) assay; assay type: cell-based; details: Homo sapiens, 16 h exposure, relative to 40 μM scriptaid positive control, read-out: EC50 Ac-α-tubulin, A549 cells
Summary of the method: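 A549 cells exposed to compound for 16 h at 37 °C (0.4% DMSO final), then fixed and immunostained for acetylated α-tubulin or histone H3 with near-infrared detection, signal normalised to cell stain. Response expressed relative to DMSO controls and to 40 μM scriptaid (tubulin) or 40 μM TSA (H3); EC50 by constrained nonlinear regression.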

Row | IC50 (Human HDAC7) [nM] | IC50 (Human HDAC11) [nM] | EC50 [1] [µM] | SMILES
1 | ≤ 1000 | > 10000 | 1 to 10 | FC(F)(F)c1nc(-c2ccc(CN(c3cnccn3)c3ccc(N4CCCC4)nn3)s2)no1 [Example DI, N-(Pyrazin-2-yl)-6-(pyrrolidin-1-yl)-N-({5-[5-(trifluoromethyl)-1,2,4-oxadiazol-3-yl]thiophen-2-yl}methyl)pyridazin-3-amine]
2 | ≤ 1000 | – | ≥ 10 | CS(=O)(=O)c1nccc(N(Cc2ccc(-c3noc(C(F)(F)F)n3)s2)c2cnccn2)n1 [Example CE, 2-Methanesulfonyl-N-(pyrazin-2-yl)-N-({5-[5-(trifluoromethyl)-1,2,4-oxadiazol-3-yl]thiophen-2-yl}methyl)pyrimidin-4-amine]
3 | ≤ 500 | > 10000 | – | FC(F)(F)c1nc(-c2ccc(CN(c3ccncn3)c3cnccn3)s2)no1 [Example BZ, N-(Pyrazin-2-yl)-N-({5-[5-(trifluoromethyl)-1,2,4-oxadiazol-3-yl]thiophen-2-yl}methyl)pyrimidin-4-amine]
4 | ≤ 1000 | > 10000 | 1 to 10 | CS(=O)(=O)c1ccc(N(Cc2ccc(-c3noc(C(F)(F)F)n3)s2)c2cnccn2)nn1 [Example DL, 6-Methanesulfonyl-N-(pyrazin-2-yl)-N-({5-[5-(trifluoromethyl)-1,2,4-oxadiazol-3-yl]thiophen-2-yl}methyl)pyridazin-3-amine]

Continued, compound first:

Row | SMILES | IC50 (Human HDAC7) [nM] | IC50 (Human HDAC11) [nM] | EC50 [1] [µM]
5 | FC(F)(F)c1nc(-c2ccc(CN(c3ccccn3)c3cnccn3)s2)no1 [Example V, N-(Pyridin-2-yl)-N-({5-[5-(trifluoromethyl)-1,2,4-oxadiazol-3-yl]thiophen-2-yl}methyl)pyrazin-2-amine] | ≤ 10000 | > 10000 | –
6 | FC(F)(F)c1ccc(N(Cc2ccc(-c3noc(C(F)(F)F)n3)s2)c2cnccn2)nn1 [Example DH, N-(Pyrazin-2-yl)-6-(trifluoromethyl)-N-({5-[5-(trifluoromethyl)-1,2,4-oxadiazol-3-yl]thiophen-2-yl}methyl)pyridazin-3-amine] | ≤ 10000 | > 10000 | ≥ 10
7 | FC(F)(F)c1nc(-c2ccc(CN(c3cncnc3)c3cnccn3)s2)no1 [Example CR, N-(Pyrazin-2-yl)-N-({5-[5-(trifluoromethyl)-1,2,4-oxadiazol-3-yl]thiophen-2-yl}methyl)pyrimidin-5-amine] | ≤ 500 | > 10000 | –

Reference: patent publication US20210038607A1, “OXADIAZOLYLTHIOPHENE DERIVATIVES USEFUL AS HISTONE DEACETYLASE INHIBITORS” (Karus Therapeutics Limited, priority 2018, published 2021)
